Results published in US8192962B2, “Processes for detecting toxic substances” (Daikin Industries, Ltd., priority 2001, dated 2012).

System: Unknown protein yeast genes
Assay: DNA chip mRNA expression in yeast, unknown protein yeast genes (Table 1)
Type: cell-based, Saccharomyces cerevisiae S288C
How it was run: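 S. cerevisiae S288C grown at 25° C in YPD were exposed in log phase for two hours to one toxic chemical at a growth-inhibiting, non-lethal concentration; untreated cells served as control. Poly(A) mRNA was reverse-transcribed with Cy3/Cy5-dUTP and hybridized to a whole-genome yeast DNA chip at 65° C for over 12 hours; values are fluorescence ratios versus untreated.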

Oc1cc(Cl)c(Cl)cc1Cl [(6), 2,4,5-trichlorophenol]
The level of expressed mRNA in the presence of chemical substance/The level of expressed mRNA in the absence of chemical substance (yeast gene YKL086W, incubated two hours with chemical substance): 1.0 | The level of expressed mRNA in the presence of chemical substance/The level of expressed mRNA in the absence of chemical substance (yeast gene YKL151C, incubated two hours with chemical substance): 2.0 | The level of expressed mRNA in the presence of chemical substance/The level of expressed mRNA in the absence of chemical substance (yeast gene YKL153W, incubated two hours with chemical substance): 2.9 | The level of expressed mRNA in the presence of chemical substance/The level of expressed mRNA in the absence of chemical substance (yeast gene YKL195W, incubated two hours with chemical substance): 2.5 | The level of expressed mRNA in the presence of chemical substance/The level of expressed mRNA in the absence of chemical substance (yeast gene YKR018C): 1.7 | The level of expressed mRNA in the presence of chemical substance/The level of expressed mRNA in the absence of chemical substance (yeast gene YKR049C): 3.0 | The level of expressed mRNA in the presence of chemical substance/The level of expressed mRNA in the absence of chemical substance (yeast gene YKR091W, incubated two hours with chemical substance): 1.0 | The level of expressed mRNA in the presence of chemical substance/The level of expressed mRNA in the absence of chemical substance (yeast gene YLR054C, incubated two hours with chemical substance): 1.2 | The level of expressed mRNA in the presence of chemical substance/The level of expressed mRNA in the absence of chemical substance (yeast gene YLR149C, incubated two hours with chemical substance): 1.4 | The level of expressed mRNA in the presence of chemical substance/The level of expressed mRNA in the absence of chemical substance (yeast gene YLR152C, incubated two hours with chemical substance): 2.1 | The level of expressed mRNA in the presence of chemical substance/The level of expressed mRNA in the absence of chemical substance (yeast gene YLR194C, incubated two hours with chemical substance): 0.9 | The level of expressed mRNA in the presence of chemical substance/The level of expressed mRNA in the absence of chemical substance (yeast gene YLR324W, incubated two hours with chemical substance): 1.2 | The level of expressed mRNA in the presence of chemical substance/The level of expressed mRNA in the absence of chemical substance (yeast gene YLR328W): 4.8 | The level of expressed mRNA in the presence of chemical substance/The level of expressed mRNA in the absence of chemical substance (yeast gene YLR350W, incubated two hours with chemical substance): 1.6 | The level of expressed mRNA in the presence of chemical substance/The level of expressed mRNA in the absence of chemical substance (yeast gene YLR387C, incubated two hours with chemical substance): 1.9 | The level of expressed mRNA in the presence of chemical substance/The level of expressed mRNA in the absence of chemical substance (yeast gene YLR460C): 0.6 | The level of expressed mRNA in the presence of chemical substance/The level of expressed mRNA in the absence of chemical substance (yeast gene YML117W, incubated two hours with chemical substance): 1.0 | The level of expressed mRNA in the presence of chemical substance/The level of expressed mRNA in the absence of chemical substance (yeast gene YMR009W, incubated two hours with chemical substance): 1.2 | The level of expressed mRNA in the presence of chemical substance/The level of expressed mRNA in the absence of chemical substance (yeast gene YMR040W): 2.8 | The level of expressed mRNA in the presence of chemical substance/The level of expressed mRNA in the absence of chemical substance (yeast gene YMR067C, incubated two hours with chemical substance): 1.4 | The level of expressed mRNA in the presence of chemical substance/The level of expressed mRNA in the absence of chemical substance (yeast gene YMR090W): 3.8 | The level of expressed mRNA in the presence of chemical substance/The level of expressed mRNA in the absence of chemical substance (yeast gene YMR095C, incubated two hours with chemical substance): 0.7 | The level of expressed mRNA in the presence of chemical substance/The level of expressed mRNA in the absence of chemical substance (yeast gene YMR097C, incubated two hours with chemical substance): 1.2 | The level of expressed mRNA in the presence of chemical substance/The level of expressed mRNA in the absence of chemical substance (yeast gene YMR102C, incubated two hours with chemical substance): 6.3 | The level of expressed mRNA in the presence of chemical substance/The level of expressed mRNA in the absence of chemical substance (yeast gene YMR107W, incubated two hours with chemical substance): 1.0 | The level of expressed mRNA in the presence of chemical substance/The level of expressed mRNA in the absence of chemical substance (yeast gene YMR180C, incubated two hours with chemical substance): 2.4 | The level of expressed mRNA in the presence of chemical substance/The level of expressed mRNA in the absence of chemical substance (yeast gene YMR184W, incubated two hours with chemical substance): 0.9 | The level of expressed mRNA in the presence of chemical substance/The level of expressed mRNA in the absence of chemical substance (yeast gene YMR191W, incubated two hours with chemical substance): 1.0 | The level of expressed mRNA in the presence of chemical substance/The level of expressed mRNA in the absence of chemical substance (yeast gene YMR295C, incubated two hours with chemical substance): 1.9 | The level of expressed mRNA in the presence of chemical substance/The level of expressed mRNA in the absence of chemical substance (yeast gene YMR316W, incubated two hours with chemical substance): 0.7 | The level of expressed mRNA in the presence of chemical substance/The level of expressed mRNA in the absence of chemical substance (yeast gene YNL044W, incubated two hours with chemical substance): 0.9 | The level of expressed mRNA in the presence of chemical substance/The level of expressed mRNA in the absence of chemical substance (yeast gene YNL074C, incubated two hours with chemical substance): 1.7 | The level of expressed mRNA in the presence of chemical substance/The level of expressed mRNA in the absence of chemical substance (yeast gene YNL092W, incubated two hours with chemical substance): 1.2 | The level of expressed mRNA in the presence of chemical substance/The level of expressed mRNA in the absence of chemical substance (yeast gene YNL115C, incubated two hours with chemical substance): 9.1 | The level of expressed mRNA in the presence of chemical substance/The level of expressed mRNA in the absence of chemical substance (yeast gene YNL156C, incubated two hours with chemical substance): 1.3 | The level of expressed mRNA in the presence of chemical substance/The level of expressed mRNA in the absence of chemical substance (yeast gene YNL234W, incubated two hours with chemical substance): 1.3 | The level of expressed mRNA in the presence of chemical substance/The level of expressed mRNA in the absence of chemical substance (yeast gene YNL281W, incubated two hours with chemical substance): 0.9 | The level of expressed mRNA in the presence of chemical substance/The level of expressed mRNA in the absence of chemical substance (yeast gene YNL305C, incubated two hours with chemical substance): 1.1 | The level of expressed mRNA in the presence of chemical substance/The level of expressed mRNA in the absence of chemical substance (yeast gene YNR068C, incubated two hours with chemical substance): 0.4 | The level of expressed mRNA in the presence of chemical substance/The level of expressed mRNA in the absence of chemical substance (yeast gene YOL032W, incubated two hours with chemical substance): 2.1 | The level of expressed mRNA in the presence of chemical substance/The level of expressed mRNA in the absence of chemical substance (yeast gene YOL036W, incubated two hours with chemical substance): 1.2 | The level of expressed mRNA in the presence of chemical substance/The level of expressed mRNA in the absence of chemical substance (yeast gene YOL047C, incubated two hours with chemical substance): 1.5 | The level of expressed mRNA in the presence of chemical substance/The level of expressed mRNA in the absence of chemical substance (yeast gene YOL071W, incubated two hours with chemical substance): 1.7 | The level of expressed mRNA in the presence of chemical substance/The level of expressed mRNA in the absence of chemical substance (yeast gene YOL082W, incubated two hours with chemical substance): 1.8 | The level of expressed mRNA in the presence of chemical substance/The level of expressed mRNA in the absence of chemical substance (yeast gene YOL083W, incubated two hours with chemical substance): 4.5 | The level of expressed mRNA in the presence of chemical substance/The level of expressed mRNA in the absence of chemical substance (yeast gene YOL117W, incubated two hours with chemical substance): 2.0 | The level of expressed mRNA in the presence of chemical substance/The level of expressed mRNA in the absence of chemical substance (yeast gene YOL131W, incubated two hours with chemical substance): 1.1 | The level of expressed mRNA in the presence of chemical substance/The level of expressed mRNA in the absence of chemical substance (yeast gene YOL150C): 5.2 | The level of expressed mRNA in the presence of chemical substance/The level of expressed mRNA in the absence of chemical substance (yeast gene YOL162W, incubated two hours with chemical substance): 1.2 | The level of expressed mRNA in the presence of chemical substance/The level of expressed mRNA in the absence of chemical substance (yeast gene YOR019W, incubated two hours with chemical substance): 1.3 | The level of expressed mRNA in the presence of chemical substance/The level of expressed mRNA in the absence of chemical substance (yeast gene YOR197W, incubated two hours with chemical substance): 1.3 | The level of expressed mRNA in the presence of chemical substance/The level of expressed mRNA in the absence of chemical substance (yeast gene YPL087W, incubated two hours with chemical substance): 4.3 | The level of expressed mRNA in the presence of chemical substance/The level of expressed mRNA in the absence of chemical substance (yeast gene YPL196W, incubated two hours with chemical substance): 2.0 | The level of expressed mRNA in the presence of chemical substance/The level of expressed mRNA in the absence of chemical substance (yeast gene YPL206C, incubated two hours with chemical substance): 1.8 | The level of expressed mRNA in the presence of chemical substance/The level of expressed mRNA in the absence of chemical substance (yeast gene YPL222W, incubated two hours with chemical substance): 2.2 | The level of expressed mRNA in the presence of chemical substance/The level of expressed mRNA in the absence of chemical substance (yeast gene YPR023C, incubated two hours with chemical substance): 1.4 | The level of expressed mRNA in the presence of chemical substance/The level of expressed mRNA in the absence of chemical substance (yeast gene YPR151C, incubated two hours with chemical substance): 1.6
